A value given as a limit tells only on which side of the number the result lay.

Assay [1] addresses T1, EP4 (Homo sapiens, UniProt P35408). Briefly: cAMP assay, EP4. It is filed as cell-based. Details: expressed in transfected cells; host or cells: HEK-EBNA cells. The note with it: HEK-EBNA cells expressing EP4. The protocol:
(§1) A 384-well drug plate was prepared to contain 6 test compounds, PGE2 and cAMP in 16 serial dilutions in triplicate, using a Biomek station. HEK-EBNA cells expressing a target PG receptor subtype (EP2 or EP4) were suspended in a stimulation buffer (HBSS, 0.1% BSA, 0.5 mM IBMX and 5 mM HEPES, pH 7.4) in a density of 10^4 cells/5 μL. The reaction was initiated by mixing 5 μL drug dilutions with 5 μL of HEK-EBNA cells in a well, carried out for 30 min at room temperature, and followed by the addition of 5 μL anti-cAMP acceptor beads in the control buffer with Tween-20 (25 mM NaCl, 0.03% Tween-20, 5 mM HEPES, pH 7.4). After 30 min in the dark at room temperature, the mixtures were incubated with 15 μL biotinylated-cAMP/strepavidin donor beads in Lysis/Detection buffer (0.1% BSA, 0.3% Tween-20 and 5 mM HEPES, pH 7.4) for 45 min at the room temperature. Fluorescence changes were read using a Fusion-alpha HT microplate reader.
On the technique in general: Cyclic AMP is a second messenger, typically raised through Gs and lowered through Gi signalling.

Assay [2] deals with T2, hIP (Homo sapiens, UniProt P43119).
T2 construct: expressed in transfected cells
Briefly: FLIPR calcium signal, hIP. It is filed as cell-based. Particulars: HEK-293(EBNA) cells; NA = no activity; read-out: Other Receptors EC50 hIP. As to the method: Methods for FLIPR™ Studies
HEK-293(EBNA) cells, stably expressing one type or subtype of recombinant human prostaglandin receptors (prostaglandin receptors expressed: hDP/Gqs5; hEP1; hEP2/Gqs5; hEP3A/Gqi5; hEP4/Gqs5; hFP; hIP; hTP), were cultured in 100 mm culture dishes in high-glucose DMEM medium containing 10% fetal bovine serum, 2 mM I-glutamine, 250 μg/ml geneticin (G418) and 200 μg/ml hygromycin B as selection markers, and 100 units/ml penicillin G, 100 μg/ml streptomycin and 0.25 μg/ml amphotericin B.
(b) Calcium Signal Studies on the FLIPR™
Cells were seeded at a density of 5×10^4 cells per well in Biocoat® Poly-D-lysine-coated black-wall, clear-bottom 96-well plates (Becton-Dickinson) and allowed to attach overnight in an incubator at 37° C. Cells were then washed two times with HBSS-HEPES buffer (Hanks Balanced Salt Solution without bicarbonate and phenol red, 20 mM HEPES, pH 7.4) using a Denley Cellwash plate washer (Labsystems). […]
Cells were excited with an Argon laser at 488 nm, and emission was measured through a 510-570 nm bandwidth emission filter (FLIPR™, Molecular Devices, Sunnyvale, Calif.). […] The peak increase in fluorescence intensity was recorded for each well. […] The peak fluorescence change in each drug-containing well was then expressed relative to the controls. […]

The target of assay [3] is T3, EP2 (Homo sapiens, UniProt P43116). Briefly: cAMP assay, EP2. Format: cell-based. Also on record: expressed in transfected cells; host or cells: HEK-EBNA cells. The note with it: HEK-EBNA cells expressing EP2. The protocol:
as §1

For assay [4], the target named is T1, EP4. Briefly: Radioligand binding, EP4. Also on record: expressed in transfected cells; membrane fraction. The note with it: [3H]PGE2 competition. As to the method:
(§2) Data from running binding and activity studies on the compounds of the invention were carried out as described in U.S. Pat. No. 7,427,685, the contents of which are incorporated herein by reference.
(§3) Cells Stably Expressing EP1, EP2, EP4, and FP Receptors
(§4) HEK-293 cells stably expressing the human or feline FP receptor, or EP1, EP2, or EP4 receptors were washed with TME buffer, scraped from the bottom of the flasks, and homogenized for 30 sec using a Brinkman PT 10/35 polytron. TME buffer was added to achieve a final 40 ml volume in the centrifuge tubes (the composition of TME is 100 mM TRIS base, 20 mM MgCl2, […]; ION HCl is added to achieve a pH of 7.4).
(§5) The cell homogenate was centrifuged at 19000 rpm for 20 min at 4° C. using a Beckman Ti-60 rotor. The resultant pellet was resuspended in TME buffer to give a final 1 mg/ml protein concentration, as determined by Biorad assay. Radioligand binding competition assays vs. [^3H-]17-phenyl PGF2α (5 nM) were performed in a 100 μl volume for 60 min. Binding reactions were started by adding plasma membrane fraction. The reaction was terminated by the addition of 4 ml ice-cold TRIS-HCl buffer and rapid filtration through glass fiber GF/B filters using a Brandel cell harvester. The filters were washed 3 times with ice-cold buffer and oven dried for one hour.
(§6) [^3H-] PGE2 (specific activity 180 Ci mmol) was used as the radio ligand for EP receptors. [^3H] 17-phenyl PGF2α was employed for FP receptor binding studies. Binding studies employing EP1, EP2, EP4 and FP receptors were performed in duplicate in at least three separate experiments. A 200 μl assay volume was used. Incubations were for 60 min at 25° C. and were terminated by the addition of 4 ml of ice-cold 50 mM TRIS-HCl, followed by rapid filtration through Whatman GF/B filters and three additional 4 ml washes in a cell harvester (Brandel). Competition studies were performed using a final concentration of 5 nM [^3H]-PGE2, or 5 nM [^3H] 17-phenyl PGF2α and non-specific binding determined with 10^−5M of unlabeled PGE2, or 17-phenyl PGF2α, according to receptor subtype studied.

For assay [5], the target named is T3, EP2. Briefly: Ki competition binding, EP2. Details: expressed in transfected cells. Particulars: [3H]PGE2 competition; NA = no activity. The protocol:
as §2
Competition binding experiments were performed in a medium containing Hank's balanced salt solution, Hepes 20 mM, pH 7.3, membranes (˜60 μg protein) or 2×10^5 cells from HEK 293 cells stably expressing human EP2 receptors, [^3H]PGE2 (10 nM) and various concentrations of test compounds in a total volume of 300 μl. Reaction mixtures were incubated at 23° C. for 60 min, and were filtered over Whatman GF IB filters under vacuum. Filters were washed three times with 5 ml ice-cold buffer containing 50 mM Tris/HCl (PH 7.3). Non-specific binding was estimated in the presence of excess unlabeled PGE2 (10 μM). Binding data fitted to the binding model for a single class of binding sites, using nonlinear regression analysis. IC50 values thus obtained were converted to Ki using the equation of Ki=(IC50/(1+[L]/KD) where [L] represents PGE2 concentration (10 nM) and KD the dissociation constant for [^3H]PGE2 at human EP2 receptors (40 nM).
as §3, §4, §5, §6

T1 sequence (P35408 whole entry): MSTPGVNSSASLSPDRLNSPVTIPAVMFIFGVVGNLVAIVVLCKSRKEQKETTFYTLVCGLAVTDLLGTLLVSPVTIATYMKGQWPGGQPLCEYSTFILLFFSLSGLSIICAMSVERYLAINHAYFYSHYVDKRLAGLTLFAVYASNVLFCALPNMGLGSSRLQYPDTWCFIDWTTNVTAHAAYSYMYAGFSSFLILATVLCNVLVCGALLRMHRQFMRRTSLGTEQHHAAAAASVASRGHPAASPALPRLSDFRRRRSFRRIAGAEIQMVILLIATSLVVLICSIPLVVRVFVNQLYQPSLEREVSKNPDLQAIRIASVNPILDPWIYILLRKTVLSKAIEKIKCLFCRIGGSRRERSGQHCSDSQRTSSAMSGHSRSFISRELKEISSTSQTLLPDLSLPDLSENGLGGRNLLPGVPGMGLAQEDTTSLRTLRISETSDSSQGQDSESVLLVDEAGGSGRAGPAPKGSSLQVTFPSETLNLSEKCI
T3 sequence (P43116 whole entry): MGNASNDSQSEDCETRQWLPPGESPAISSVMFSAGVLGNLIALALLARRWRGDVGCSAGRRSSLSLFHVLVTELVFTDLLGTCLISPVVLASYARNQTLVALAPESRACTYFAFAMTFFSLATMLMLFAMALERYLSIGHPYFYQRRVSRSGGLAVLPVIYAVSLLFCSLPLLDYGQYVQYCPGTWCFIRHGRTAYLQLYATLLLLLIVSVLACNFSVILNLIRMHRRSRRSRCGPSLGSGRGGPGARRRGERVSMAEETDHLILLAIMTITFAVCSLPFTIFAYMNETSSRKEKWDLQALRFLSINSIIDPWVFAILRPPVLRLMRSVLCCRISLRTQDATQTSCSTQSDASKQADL
T2 sequence (P43119 whole entry): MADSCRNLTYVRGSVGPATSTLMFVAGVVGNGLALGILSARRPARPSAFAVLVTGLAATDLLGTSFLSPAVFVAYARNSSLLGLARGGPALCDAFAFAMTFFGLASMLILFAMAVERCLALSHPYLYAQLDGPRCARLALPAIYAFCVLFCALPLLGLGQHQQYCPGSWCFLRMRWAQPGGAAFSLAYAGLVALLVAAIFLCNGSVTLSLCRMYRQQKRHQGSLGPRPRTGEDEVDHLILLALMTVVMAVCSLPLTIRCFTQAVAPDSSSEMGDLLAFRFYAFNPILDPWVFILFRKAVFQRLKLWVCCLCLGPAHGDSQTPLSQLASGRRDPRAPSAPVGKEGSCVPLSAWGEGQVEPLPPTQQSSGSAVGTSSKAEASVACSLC

In general, EC50 refers to the midpoint of the concentration-response curve. The Ki is a dissociation constant, usually derived from enzyme kinetics or from competition with a known ligand. Higher therefore signals lower affinity. With `O=C(O)c1ccc(CNC(=O)C2CCCC2Cc2cccc(C(F)(F)F)c2)cc1` (single isomer, unassigned) [Example 6, 4-((2-(3-(Trifluoromethyl)benzyl)cyclopentanecarboxamido)methyl)benzoic Acid], the EC50 in assay [1] was above 10 µM; in assay [2] it was above 10 µM; in assay [3], 10 nM. For the same compound, the Ki came out at 18 nM in assay [4] and 733 nM in assay [5].
Regarding `COc1cc(CC2=C(C(=O)NCc3ccc(C(=O)O)cc3)CCCCC2)cc(OC)c1` [Example 11, 4-((2-(3,5-Dimethoxybenzyl)cyclohept-1-enecarboxamido)methyl)benzoic Acid], the EC50 was above 10 µM in assay [1], above 10 µM in assay [2] and 48 nM in assay [3]. For the same compound, the Ki in assay [4] worked out at 1 nM; in assay [5], 2780 nM.

For the origin of these results see patent publication US10407382B2, “EP4 agonists as therapeutic compounds” (ALLERGAN, INC., priority 2014, dated 2019).
